± gives the expanded uncertainty stated by the source.
Assay: xn = mol fraction of the nth substance listed
Conditions: for surface tension liquid-gas: Pendant drop shape; for viscosity: 101 kPa, Liquid, Concentric cylinders viscometry

CCCO [propan-1-ol] + CCn1cc[n+](C)c1.COS(=O)(=O)[O-]
x2 = 0
Conditions	surface tension liquid-gas [mN/m]	viscosity [mPa·s]
298.15 K	23.2 ± 0.5	1.94 ± 0.12
303.15 K	22.8 ± 0.5	1.72 ± 0.1
308.15 K	22.3 ± 0.5	1.54 ± 0.09
313.15 K	21.9 ± 0.5	1.38 ± 0.08

COS(=O)(=O)[O-].Cn1cc[n+](C)c1 [1,3-dimethylimidazolium methylsulfate] + CCCO
Conditions	surface tension liquid-gas, 298.15 K [mN/m]	surface tension liquid-gas, 303.15 K [mN/m]	surface tension liquid-gas, 308.15 K [mN/m]	surface tension liquid-gas, 313.15 K [mN/m]	viscosity, 298.15 K [mPa·s]	viscosity, 303.15 K [mPa·s]	viscosity, 308.15 K [mPa·s]	viscosity, 313.15 K [mPa·s]
x1 = 0.039	24.5 ± 0.6	24 ± 0.5	23.6 ± 0.5	23.2 ± 0.5	3.15 ± 0.2	2.97 ± 0.19	2.53 ± 0.16	2.2 ± 0.14
x1 = 0.208	30.1 ± 0.7	29.8 ± 0.7	29.4 ± 0.7	29.1 ± 0.7	10.7 ± 0.7	8.55 ± 0.52	6.76 ± 0.41	6.05 ± 0.37
x1 = 0.382	36.1 ± 0.8	35.8 ± 0.8	35.5 ± 0.8	35.2 ± 0.8	19.6 ± 1.2	15.4 ± 0.9	12.2 ± 0.7	10.5 ± 0.6
x1 = 0.561	42.3 ± 0.9	42.1 ± 0.9	41.8 ± 0.9	41.6 ± 0.9	31.3 ± 1.9	25.1 ± 1.5	20.1 ± 1.2	16.8 ± 1
x1 = 0.702	47.4 ± 1.1	47.2 ± 1	46.9 ± 1	46.6 ± 1	42.5 ± 2.6	34.7 ± 2.1	28.1 ± 1.7	23.2 ± 1.4
x1 = 0.912	55.1 ± 1.2	54.9 ± 1.2	54.6 ± 1.2	54.3 ± 1.2	65.2 ± 3.9	52.9 ± 3.2	42.7 ± 2.6	35.3 ± 2.1
x1 = 1	58.5 ± 1.3	58.2 ± 1.3	57.9 ± 1.3	57.6 ± 1.3	78 ± 4.7	61.9 ± 3.7	49.9 ± 3	40.9 ± 2.5

CCn1cc[n+](C)c1.COS(=O)(=O)[O-] [1-ethyl-3-methylimidazolium methylsulfate] + CCCCO
Conditions	surface tension liquid-gas, 298.15 K [mN/m]	surface tension liquid-gas, 303.15 K [mN/m]	surface tension liquid-gas, 308.15 K [mN/m]	surface tension liquid-gas, 313.15 K [mN/m]	viscosity, 298.15 K [mPa·s]	viscosity, 303.15 K [mPa·s]	viscosity, 308.15 K [mPa·s]	viscosity, 313.15 K [mPa·s]
x1 = 0.041	25 ± 0.6	24.7 ± 0.6	24.3 ± 0.6	23.9 ± 0.5	3.84 ± 0.24	3.3 ± 0.21	2.86 ± 0.18	2.45 ± 0.15
x1 = 0.219	29.9 ± 0.7	29.5 ± 0.7	29.2 ± 0.7	28.9 ± 0.7	10.7 ± 0.7	8.75 ± 0.53	7.38 ± 0.45	6.22 ± 0.38
x1 = 0.417	35.3 ± 0.8	35.1 ± 0.8	34.7 ± 0.8	34.5 ± 0.8	20.3 ± 1.2	16.4 ± 1	13.8 ± 0.8	11.4 ± 0.7
x1 = 0.571	39.8 ± 0.9	39.5 ± 0.9	39.2 ± 0.9	38.9 ± 0.9	29 ± 1.8	23.4 ± 1.4	19.5 ± 1.2	16.2 ± 1
x1 = 0.731	44.4 ± 1	44.2 ± 1	43.9 ± 1	43.6 ± 1	41.1 ± 2.5	33.1 ± 2	27.5 ± 1.7	22.8 ± 1.4
x1 = 0.909	49.8 ± 1.2	49.5 ± 1.2	49.2 ± 1.2	48.9 ± 1.2	58.2 ± 3.5	46.8 ± 2.8	38.4 ± 2.3	31.8 ± 1.9
x1 = 1	52.5 ± 1.3	52.2 ± 1.2	51.9 ± 1.2	51.6 ± 1.2	68.5 ± 4.2	55.4 ± 3.4	45.5 ± 2.8	37.9 ± 2.3

CCCCO [butan-1-ol] + CCn1cc[n+](C)c1.COS(=O)(=O)[O-]
x2 = 0
Conditions	surface tension liquid-gas [mN/m]	viscosity [mPa·s]
298.15 K	23.9 ± 0.5	2.57 ± 0.15
303.15 K	23.5 ± 0.5	2.28 ± 0.14
308.15 K	23.1 ± 0.5	2.01 ± 0.12
313.15 K	22.7 ± 0.5	1.75 ± 0.11

CCn1cc[n+](C)c1.COS(=O)(=O)[O-] [1-ethyl-3-methylimidazolium methylsulfate] + CCCCCO
Conditions	surface tension liquid-gas, 298.15 K [mN/m]	surface tension liquid-gas, 303.15 K [mN/m]	surface tension liquid-gas, 308.15 K [mN/m]	surface tension liquid-gas, 313.15 K [mN/m]	viscosity, 298.15 K [mPa·s]	viscosity, 303.15 K [mPa·s]	viscosity, 308.15 K [mPa·s]	viscosity, 313.15 K [mPa·s]
x1 = 0.05	26.1 ± 0.6	25.7 ± 0.6	25.3 ± 0.6	24.9 ± 0.6	5.15 ± 0.32	4.07 ± 0.25	3.74 ± 0.23	3.24 ± 0.2
x1 = 0.284	32.3 ± 0.7	32 ± 0.7	31.6 ± 0.7	31.3 ± 0.7	14.8 ± 0.9	11.9 ± 0.7	10.2 ± 0.6	8.52 ± 0.52
x1 = 0.459	37.1 ± 0.8	36.8 ± 0.8	36.5 ± 0.8	36.2 ± 0.8	24.4 ± 1.5	19.4 ± 1.2	16.3 ± 1	13.6 ± 0.8
x1 = 0.613	41.4 ± 0.9	41.1 ± 0.9	40.8 ± 0.9	40.5 ± 0.9	34.7 ± 2.1	27.3 ± 1.7	22.5 ± 1.4	18.7 ± 1.1
x1 = 0.768	45.8 ± 1.1	45.5 ± 1.1	45.2 ± 1.1	44.9 ± 1	46.9 ± 2.8	37 ± 2.2	30.5 ± 1.9	25.2 ± 1.5
x1 = 0.922	50.3 ± 1.2	50 ± 1.2	49.7 ± 1.2	49.4 ± 1.2	60.9 ± 3.7	48.8 ± 3	40.1 ± 2.4	33.3 ± 2
x1 = 1	52.5 ± 1.3	52.2 ± 1.2	51.9 ± 1.2	51.6 ± 1.2	68.5 ± 4.2	55.4 ± 3.4	45.5 ± 2.8	37.9 ± 2.3

CCCCO [butan-1-ol] + COS(=O)(=O)[O-].Cn1cc[n+](C)c1
x2 = 0
Conditions	surface tension liquid-gas [mN/m]	viscosity [mPa·s]
298.15 K	23.9 ± 0.5	2.57 ± 0.15
303.15 K	23.5 ± 0.5	2.28 ± 0.14
308.15 K	23.1 ± 0.5	2.01 ± 0.12
313.15 K	22.7 ± 0.5	1.75 ± 0.11

CCCCCO [pentan-1-ol] + COS(=O)(=O)[O-].Cn1cc[n+](C)c1
x2 = 0
Conditions	surface tension liquid-gas [mN/m]	viscosity [mPa·s]
298.15 K	24.7 ± 0.6	3.51 ± 0.21
303.15 K	24.3 ± 0.5	2.84 ± 0.17
308.15 K	23.9 ± 0.5	2.64 ± 0.16
313.15 K	23.5 ± 0.5	2.34 ± 0.14

COS(=O)(=O)[O-].Cn1cc[n+](C)c1 [1,3-dimethylimidazolium methylsulfate] + CCCCCO
Conditions	surface tension liquid-gas, 298.15 K [mN/m]	surface tension liquid-gas, 303.15 K [mN/m]	surface tension liquid-gas, 308.15 K [mN/m]	surface tension liquid-gas, 313.15 K [mN/m]	viscosity, 298.15 K [mPa·s]	viscosity, 303.15 K [mPa·s]	viscosity, 308.15 K [mPa·s]	viscosity, 313.15 K [mPa·s]
x1 = 0.1	28 ± 0.6	27.6 ± 0.6	27.2 ± 0.6	26.9 ± 0.6	9.23 ± 0.57	7.19 ± 0.44	6.2 ± 0.38	5.25 ± 0.32
x1 = 0.35	36.2 ± 0.8	35.9 ± 0.8	35.6 ± 0.8	35.3 ± 0.8	24.7 ± 1.5	19.4 ± 1.2	15.7 ± 0.9	12.7 ± 0.8
x1 = 0.54	42.6 ± 0.9	42.3 ± 0.9	42 ± 0.9	41.7 ± 0.9	38.2 ± 2.3	29.9 ± 1.8	24.1 ± 1.5	19.8 ± 1.2
x1 = 0.661	46.7 ± 1	46.4 ± 1	46.1 ± 1	45.8 ± 1	47.7 ± 2.9	37.3 ± 2.2	30 ± 1.8	24.7 ± 1.5
x1 = 0.79	51.1 ± 1.1	50.8 ± 1.1	50.5 ± 1.1	50.3 ± 1.1	58.9 ± 3.5	46.5 ± 2.8	37.5 ± 2.3	30.8 ± 1.9
x1 = 0.931	56.1 ± 1.2	55.8 ± 1.2	55.5 ± 1.2	55.2 ± 1.2	71.8 ± 4.3	57.1 ± 3.4	46 ± 2.8	37.8 ± 2.3
x1 = 1	58.5 ± 1.3	58.2 ± 1.3	57.9 ± 1.3	57.6 ± 1.3	78 ± 4.7	61.9 ± 3.7	49.9 ± 3	40.9 ± 2.5

CCCCCO [pentan-1-ol] + CCn1cc[n+](C)c1.COS(=O)(=O)[O-]
x2 = 0
Conditions	surface tension liquid-gas [mN/m]	viscosity [mPa·s]
298.15 K	24.7 ± 0.6	3.51 ± 0.21
303.15 K	24.3 ± 0.5	2.84 ± 0.17
308.15 K	23.9 ± 0.5	2.64 ± 0.16
313.15 K	23.5 ± 0.5	2.34 ± 0.14

COS(=O)(=O)[O-].Cn1cc[n+](C)c1 [1,3-dimethylimidazolium methylsulfate] + CCCCO
Conditions	surface tension liquid-gas, 298.15 K [mN/m]	surface tension liquid-gas, 303.15 K [mN/m]	surface tension liquid-gas, 308.15 K [mN/m]	surface tension liquid-gas, 313.15 K [mN/m]	viscosity, 298.15 K [mPa·s]	viscosity, 303.15 K [mPa·s]	viscosity, 308.15 K [mPa·s]	viscosity, 313.15 K [mPa·s]
x1 = 0.063	26 ± 0.6	25.6 ± 0.6	25.2 ± 0.6	24.8 ± 0.6	5.34 ± 0.34	4.58 ± 0.29	3.86 ± 0.24	3.2 ± 0.2
x1 = 0.221	31.2 ± 0.7	30.9 ± 0.7	30.6 ± 0.7	30.2 ± 0.7	13.5 ± 0.8	10.5 ± 0.6	8.53 ± 0.52	7.18 ± 0.44
x1 = 0.432	38.3 ± 0.8	38.1 ± 0.8	37.8 ± 0.8	37.5 ± 0.8	26.3 ± 1.6	20.2 ± 1.2	16.1 ± 1	13.6 ± 0.8
x1 = 0.64	45.5 ± 1	45.3 ± 1	45 ± 1	44.7 ± 1	41.4 ± 2.5	32.6 ± 2	26.1 ± 1.6	21.9 ± 1.3
x1 = 0.781	50.5 ± 1.1	50.3 ± 1.1	50 ± 1.1	49.7 ± 1.1	54 ± 3.3	43.3 ± 2.6	34.8 ± 2.1	29 ± 1.8
x1 = 0.927	55.8 ± 1.2	55.5 ± 1.2	55.2 ± 1.2	55 ± 1.2	69.7 ± 4.2	55.5 ± 3.3	45 ± 2.7	37 ± 2.2
x1 = 1	58.5 ± 1.3	58.2 ± 1.3	57.9 ± 1.3	57.6 ± 1.3	78 ± 4.7	61.9 ± 3.7	49.9 ± 3	40.9 ± 2.5

CCn1cc[n+](C)c1.COS(=O)(=O)[O-] [1-ethyl-3-methylimidazolium methylsulfate] + CCCO
Conditions	surface tension liquid-gas, 298.15 K [mN/m]	surface tension liquid-gas, 303.15 K [mN/m]	surface tension liquid-gas, 308.15 K [mN/m]	surface tension liquid-gas, 313.15 K [mN/m]	viscosity, 298.15 K [mPa·s]	viscosity, 303.15 K [mPa·s]	viscosity, 308.15 K [mPa·s]	viscosity, 313.15 K [mPa·s]
x1 = 0.059	24.8 ± 0.6	24.4 ± 0.6	24 ± 0.5	23.6 ± 0.5	3.71 ± 0.23	3.14 ± 0.2	2.72 ± 0.17	2.36 ± 0.15
x1 = 0.228	29.5 ± 0.7	29.1 ± 0.7	28.8 ± 0.7	28.5 ± 0.6	9.94 ± 0.6	8.07 ± 0.49	6.8 ± 0.41	5.75 ± 0.35
x1 = 0.375	33.6 ± 0.8	33.4 ± 0.8	33.1 ± 0.7	32.8 ± 0.7	17 ± 1	13.7 ± 0.8	11.6 ± 0.7	9.72 ± 0.59
x1 = 0.524	38 ± 0.9	37.7 ± 0.9	37.4 ± 0.9	37.2 ± 0.8	24.7 ± 1.5	19.8 ± 1.2	16.6 ± 1	13.9 ± 0.8
x1 = 0.72	43.8 ± 1	43.6 ± 1	43.3 ± 1	43 ± 1	38.9 ± 2.4	31.3 ± 1.9	25.9 ± 1.6	21.6 ± 1.3
x1 = 0.874	48.6 ± 1.1	48.3 ± 1.1	48 ± 1.1	47.7 ± 1.1	52.7 ± 3.2	42.5 ± 2.6	35.1 ± 2.1	29.2 ± 1.8
x1 = 1	52.5 ± 1.3	52.2 ± 1.2	51.9 ± 1.2	51.6 ± 1.2	68.5 ± 4.2	55.4 ± 3.4	45.5 ± 2.8	37.9 ± 2.3

CCCO [propan-1-ol] + COS(=O)(=O)[O-].Cn1cc[n+](C)c1
x2 = 0
Conditions	surface tension liquid-gas [mN/m]	viscosity [mPa·s]
298.15 K	23.2 ± 0.5	1.94 ± 0.12
303.15 K	22.8 ± 0.5	1.72 ± 0.1
308.15 K	22.3 ± 0.5	1.54 ± 0.09
313.15 K	21.9 ± 0.5	1.38 ± 0.08
